Source: patent US20020048549A1, “Radioactive transition metal nitride heterocomplex” (priority 1996, published 2002)

Test: Biodistribution of 99mTcN-DESI in SD rats (Group A alone, Group B with unlabeled desipramine)
Assay type: in vivo
Method: The biodistribution of the ^99mTcN-DESI in SD rats obtained in Example 15 was measured.
Before being injected into the rats, the ^99mTcN-DESI was separated and purified from the excess and free bidentate ligand by HPLC. The active ingredient of the complex was further purified by passage through a Sep-Pak cartridge activated with 5 ml of 95% ethanol. The final active ingredient was recovered with 95% ethanol and diluted with physiological saline containing 10% Tween 80.
The rats were divided into two groups, group A and group B. Into each rat in group A was injected 20 μCi of the ^99mTcN-DESI. Into each rat in group B were injected 20 μCi of the ^99mTcN-DESI and 1.0 mg/kg of unlabeled desipramine at the same time.
SD rats weighing about 250 g were put under intraperitoneal anesthesia with a mixture of xylazine (18 mg/kg) and ketamine (15 mg/kg) and given an injection in the jugular vein. Then, the organs (brain, heart, lung, liver, spleen, kidney, muscle, adrenal, and submaxillary gland) were excised from the rats at different intervals of time, washed and then weighed. In addition, blood samples were collected and then weighed. The data on the biodistribution are expressed as the mean±significant difference of the percentage of radioactivity level per gram of the organ weight based on the dose of radioactivity, (% dose/g). The measurement was carried out using groups of 3 rats each.

[1] = Group A (complex alone), 10 min
[2] = Group A (complex alone), 30 min
[3] = Group A (complex alone), 60 min
[4] = Group A (complex alone), 120 min
[5] = Group A (complex alone), 150 min
[6] = Group B (with 1.0 mg/kg unlabeled desipramine), 2 min
[7] = Group B (with 1.0 mg/kg unlabeled desipramine), 5 min
[8] = Group B (with 1.0 mg/kg unlabeled desipramine), 10 min
[9] = Group B (with 1.0 mg/kg unlabeled desipramine), 30 min
[10] = Group B (with 1.0 mg/kg unlabeled desipramine), 60 min
[11] = Group B (with 1.0 mg/kg unlabeled desipramine), 120 min
[12] = Group B (with 1.0 mg/kg unlabeled desipramine), 150 min

COCCC[P+]1(CCCOC)CCN(CCOC)CC[P+](CCCOC)(CCCOC)[99Tc-2]12(#[N])[NH]C(C(=O)N(C)CCCN1c3ccccc3CCc3ccccc31)C[S]2 (centres unmarked) [^99mTcN-DESI]
Adrenal glands % dose/g (Group A (complex alone), 2 min): 4.227 ± 0.089 % dose/g
Blood % dose/g (Group A (complex alone), 2 min): 0.383 ± 0.287 % dose/g
Brain % dose/g (Group A (complex alone), 2 min): 0.082 ± 0.010 % dose/g
Heart % dose/g (Group A (complex alone), 2 min): 0.904 ± 0.062 % dose/g
Kidney % dose/g (Group A (complex alone), 2 min): 6.518 ± 0.821 % dose/g
Liver % dose/g (Group A (complex alone), 2 min): 7.259 ± 0.005 % dose/g
Lung % dose/g (Group A (complex alone), 2 min): 0.565 ± 0.074 % dose/g
Muscle % dose/g (Group A (complex alone), 2 min): 0.110 ± 0.004 % dose/g
Spleen % dose/g (Group A (complex alone), 2 min): 1.833 ± 0.249 % dose/g
Submaxillary glands % dose/g (Group A (complex alone), 2 min): 1.791 ± 0.249 % dose/g
Adrenal glands % dose/g (Group A (complex alone), 5 min): 3.710 ± 0.682 % dose/g
Blood % dose/g (Group A (complex alone), 5 min): 0.349 ± 0.033 % dose/g
Brain % dose/g (Group A (complex alone), 5 min): 0.079 ± 0.002 % dose/g
Heart % dose/g (Group A (complex alone), 5 min): 0.881 ± 0.071 % dose/g
Kidney % dose/g (Group A (complex alone), 5 min): 6.193 ± 0.421 % dose/g
Liver % dose/g (Group A (complex alone), 5 min): 5.798 ± 0.549 % dose/g
Lung % dose/g (Group A (complex alone), 5 min): 0.425 ± 0.094 % dose/g
Muscle % dose/g (Group A (complex alone), 5 min): 0.105 ± 0.010 % dose/g
Spleen % dose/g (Group A (complex alone), 5 min): 1.927 ± 0.155 % dose/g
Submaxillary glands % dose/g (Group A (complex alone), 5 min): 1.721 ± 0.460 % dose/g
Adrenal glands % dose/g [1]: 5.353 ± 0.339 % dose/g
Blood % dose/g [1]: 0.212 ± 0.012 % dose/g
Brain % dose/g [1]: 0.076 ± 0.003 % dose/g
Heart % dose/g [1]: 0.894 ± 0.016 % dose/g
Kidney % dose/g [1]: 6.295 ± 0.329 % dose/g
Liver % dose/g [1]: 4.539 ± 0.286 % dose/g
Lung % dose/g [1]: 0.399 ± 0.011 % dose/g
Muscle % dose/g [1]: 0.096 ± 0.009 % dose/g
Spleen % dose/g [1]: 2.139 ± 0.200 % dose/g
Submaxillary glands % dose/g [1]: 1.876 ± 0.030 % dose/g
Adrenal glands % dose/g [2]: 5.153 ± 0.039 % dose/g
Blood % dose/g [2]: 0.095 ± 0.024 % dose/g
Brain % dose/g [2]: 0.070 ± 0.005 % dose/g
Heart % dose/g [2]: 0.951 ± 0.103 % dose/g
Kidney % dose/g [2]: 10.11 ± 1.762 % dose/g
Liver % dose/g [2]: 3.069 ± 0.672 % dose/g
Lung % dose/g [2]: 0.351 ± 0.085 % dose/g
Muscle % dose/g [2]: 0.098 ± 0.021 % dose/g
Spleen % dose/g [2]: 1.965 ± 0.158 % dose/g
Submaxillary glands % dose/g [2]: 2.065 ± 0.069 % dose/g
Adrenal glands % dose/g [3]: 4.800 ± 1.737 % dose/g
Blood % dose/g [3]: 0.069 ± 0.008 % dose/g
Brain % dose/g [3]: 0.064 ± 0.003 % dose/g
Heart % dose/g [3]: 0.931 ± 0.025 % dose/g
Kidney % dose/g [3]: 6.227 ± 1.020 % dose/g
Liver % dose/g [3]: 2.809 ± 0.739 % dose/g
Lung % dose/g [3]: 0.224 ± 0.070 % dose/g
Muscle % dose/g [3]: 0.108 ± 0.015 % dose/g
Spleen % dose/g [3]: 1.873 ± 0.667 % dose/g
Submaxillary glands % dose/g [3]: 1.491 ± 1.149 % dose/g
Adrenal glands % dose/g [4]: 4.220 ± 0.182 % dose/g
Blood % dose/g [4]: 0.068 ± 0.001 % dose/g
Brain % dose/g [4]: 0.051 ± 0.001 % dose/g
Heart % dose/g [4]: 0.806 ± 0.080 % dose/g
Kidney % dose/g [4]: 5.538 ± 0.607 % dose/g
Liver % dose/g [4]: 1.463 ± 0.186 % dose/g
Lung % dose/g [4]: 0.151 ± 0.001 % dose/g
Muscle % dose/g [4]: 0.397 ± 0.033 % dose/g
Spleen % dose/g [4]: 1.453 ± 0.085 % dose/g
Submaxillary glands % dose/g [4]: 1.351 ± 0.037 % dose/g
Adrenal glands % dose/g [5]: 5.013 ± 1.061 % dose/g
Blood % dose/g [5]: 0.058 ± 0.008 % dose/g
Brain % dose/g [5]: 0.034 ± 0.004 % dose/g
Heart % dose/g [5]: 0.884 ± 0.075 % dose/g
Kidney % dose/g [5]: 7.182 ± 0.349 % dose/g
Liver % dose/g [5]: 1.375 ± 0.054 % dose/g
Lung % dose/g [5]: 0.194 ± 0.002 % dose/g
Muscle % dose/g [5]: 0.090 ± 0.009 % dose/g
Spleen % dose/g [5]: 1.461 ± 0.132 % dose/g
Submaxillary glands % dose/g [5]: 1.976 ± 0.293 % dose/g
Adrenal glands % dose/g [6]: 4.314 ± 0.718 % dose/g
Blood % dose/g [6]: 0.467 ± 0.011 % dose/g
Brain % dose/g [6]: 0.032 ± 0.004 % dose/g
Heart % dose/g [6]: 0.793 ± 0.037 % dose/g
Kidney % dose/g [6]: 5.492 ± 0.602 % dose/g
Liver % dose/g [6]: 5.149 ± 0.787 % dose/g
Lung % dose/g [6]: 0.488 ± 0.042 % dose/g
Muscle % dose/g [6]: 0.103 ± 0.002 % dose/g
Spleen % dose/g [6]: 1.841 ± 0.197 % dose/g
Submaxillary glands % dose/g [6]: 1.878 ± 0.09 % dose/g
Adrenal glands % dose/g [7]: 4.480 ± 0.991 % dose/g
Blood % dose/g [7]: 0.277 ± 0.028 % dose/g
Brain % dose/g [7]: 0.029 ± 0.003 % dose/g
Heart % dose/g [7]: 0.819 ± 0.052 % dose/g
Kidney % dose/g [7]: 5.899 ± 1.397 % dose/g
Liver % dose/g [7]: 6.420 ± 0.378 % dose/g
Lung % dose/g [7]: 0.353 ± 0.028 % dose/g
Muscle % dose/g [7]: 0.101 ± 0.014 % dose/g
Spleen % dose/g [7]: 2.032 ± 0.197 % dose/g
Submaxillary glands % dose/g [7]: 1.786 ± 0.201 % dose/g
Adrenal glands % dose/g [8]: 4.349 ± 0.164 % dose/g
Blood % dose/g [8]: 0.170 ± 0.020 % dose/g
Brain % dose/g [8]: 0.018 ± 0.001 % dose/g
Heart % dose/g [8]: 0.814 ± 0.023 % dose/g
Kidney % dose/g [8]: 5.192 ± 0.036 % dose/g
Liver % dose/g [8]: 4.732 ± 0.057 % dose/g
Lung % dose/g [8]: 0.348 ± 0.003 % dose/g
Muscle % dose/g [8]: 0.086 ± 0.007 % dose/g
Spleen % dose/g [8]: 1.559 ± 0.074 % dose/g
Submaxillary glands % dose/g [8]: 1.669 ± 0.126 % dose/g
Adrenal glands % dose/g [9]: 6.120 ± 2.224 % dose/g
Blood % dose/g [9]: 0.169 ± 0.028 % dose/g
Brain % dose/g [9]: 0.018 ± 0.003 % dose/g
Heart % dose/g [9]: 0.832 ± 0.170 % dose/g
Kidney % dose/g [9]: 7.883 ± 1.689 % dose/g
Liver % dose/g [9]: 4.957 ± 0.168 % dose/g
Lung % dose/g [9]: 0.27 ± 0.117 % dose/g
Muscle % dose/g [9]: 0.091 ± 0.011 % dose/g
Spleen % dose/g [9]: 1.339 ± 0.380 % dose/g
Submaxillary glands % dose/g [9]: 1.042 ± 0.123 % dose/g
Adrenal glands % dose/g [10]: 4.321 ± 0.712 % dose/g
Blood % dose/g [10]: 0.074 ± 0.016 % dose/g
Brain % dose/g [10]: 0.016 ± 0.002 % dose/g
Heart % dose/g [10]: 0.693 ± 0.057 % dose/g
Kidney % dose/g [10]: 5.176 ± 0.584 % dose/g
Liver % dose/g [10]: 2.505 ± 0.113 % dose/g
Lung % dose/g [10]: 0.253 ± 0.014 % dose/g
Muscle % dose/g [10]: 0.110 ± 0.024 % dose/g
Spleen % dose/g [10]: 1.403 ± 0.209 % dose/g
Submaxillary glands % dose/g [10]: 1.596 ± 0.138 % dose/g
Adrenal glands % dose/g [11]: 4.588 ± 0.985 % dose/g
Blood % dose/g [11]: 0.050 ± 0.007 % dose/g
Brain % dose/g [11]: 0.004 ± 0.000 % dose/g
Heart % dose/g [11]: 0.745 ± 0.063 % dose/g
Kidney % dose/g [11]: 5.737 ± 0.093 % dose/g
Liver % dose/g [11]: 1.159 ± 0.09 % dose/g
Lung % dose/g [11]: 0.206 ± 0.048 % dose/g
Muscle % dose/g [11]: 0.343 ± 0.443 % dose/g
Spleen % dose/g [11]: 1.865 ± 0.313 % dose/g
Submaxillary glands % dose/g [11]: 1.641 ± 0.280 % dose/g
Adrenal glands % dose/g [12]: 4.09 ± 0.294 % dose/g
Blood % dose/g [12]: 0.050 ± 0.014 % dose/g
Brain % dose/g [12]: 0.001 ± 0.000 % dose/g
Heart % dose/g [12]: 0.815 ± 0.070 % dose/g
Kidney % dose/g [12]: 5.646 ± 1.192 % dose/g
Liver % dose/g [12]: 1.253 ± 0.006 % dose/g
Lung % dose/g [12]: 0.163 ± 0.036 % dose/g
Muscle % dose/g [12]: 0.096 ± 0.007 % dose/g
Spleen % dose/g [12]: 1.637 ± 0.147 % dose/g
Submaxillary glands % dose/g [12]: 1.983 ± 0.339 % dose/g
accumulation in adrenal (SD rats): very large amount
accumulation in heart (SD rats): considerable amount
elimination through liver and kidney (SD rats): very rapidly eliminated
